In patent publication US10694743B2, “Agricultural compositions with reduced aquatic toxicity” (priority 2014, dated 2020):
Entries after “also recorded” stand apart in the source; their conditions may differ.

How the values were obtained:
[1] = system: common lambsquarters (CHEAL); test: Agricultural field test of glyphosate with adjuvant, visual weed control; assay type: in vivo, Chenopodium album; details: for CHEAL control relative to the control: 8 and 14 DAT; for CHEAL control relative to Roundup Powermax / CHEAL 22 DAT, %: 22 DAT; for CHEAL 14 DAT, % / CHEAL 22 DAT, % / CHEAL 8 DAT, %: visual weed control, glyphosate 480 g.a.e./ha; for CHEAL 14 DAT, % / CHEAL 22 DAT, %: 0-100; for CHEAL 8 DAT, %: 0=no effect to 100=complete kill, 160 g adjuvant per 540 g.a.e.
Description: (§1) Amine ethoxylates are evaluated as adjuvants for glyphosate formulations in agricultural field tests performed by an independent laboratory. The weed species included in the evaluation are common lambsquarters (CHEAL), barnyard grass (ECHCG), and wild oat (AVEFA).
(§2) Two field trials are conducted in the Netherlands during the summer. In the first trial, common lambsquarters (CHEAL, Chenopodium album), barnyard grass (ECHCG, Echinochloa crus-galls) and wild oat (AVEFA, Avena fatua) are sown in three distinct zones of the same size in a 4×2 m field plot. Other emerging weed species are removed by hand as needed. Five weeks after sowing, the plots are treated and weed control is visually assessed 8, 14, and 22 days after treatment (DAT). Visual assessment is used with a scale of 0=no effect to 100=complete kill. Growth reduction is included in this assessment. On the day of treatment, ECHCG has more than six leaves, and CHEAL has at least six unfolded leaves. A second test with AVEFA alone is conducted because the level of emergence was too low in the first test. (Results from the first AVEFA testing are not included.) AVEFA is at the 3-leaf stage on the day of treatment. The plots are visually evaluated 9 and 23 days after treatment.
(§3) A glyphosate potassium solution (540 g.a.e./L) without surfactants or other adjuvant chemicals is used to prepare solutions that contain the adjuvants listed in Table 2A. Roundup® Powermax® (540 g.a.e./L, product of Monsanto) is used as a control. The glyphosate solutions are diluted with deionized water such that application at a water volume of 80 L/ha results in a glyphosate application rate of 480 g.a.e./ha. Adjuvants are included in the diluted glyphosate solution at a ratio of 160 g adjuvant per 540 g.a.e. glyphosate. In this way, commercial glyphosate products containing glyphosate at 540 g.a.e./L and adjuvant at 160 g/L are simulated.
(§4) Glyphosate solutions are applied with a backpack sprayer having a TeeJet® TP8003E nozzle set to deliver 80 L/ha at 150 kPa. The application with the first trial started early in the morning in mid-summer. Conditions: sunny skies, relative humidity 80%, temperature 18° C., little or no wind, wet soil, damp foliage. Application of AVEFA trial starts in early autumn late in the afternoon. Conditions: partly cloudy, relative humidity 79%, temperature 15° C., little or no wind, wet soil, dry foliage.

[2] = system: barnyard grass (ECHCG); test: as above; assay type: in vivo, Echinochloa crus-galls; details: for ECHCG control relative to Roundup Powermax / ECHCG 22 DAT, %: 22 DAT; for ECHCG 8 DAT, % / ECHCG 14 DAT, % / ECHCG 22 DAT, %: visual weed control, 0-100, glyphosate 480 g.a.e./ha
Description: as §1, §2, §3, §4

[3] = system: wild oat (AVEFA); test: Agricultural field test of glyphosate with adjuvant, visual weed control (second trial); assay type: in vivo, Avena fatua; details: glyphosate 480 g.a.e./ha; for AVEFA 9 DAT, %: 0-100, 9 DAT; for AVEFA 23 DAT, %: 0-100, 23 DAT
Description: as §1, §2, §3, §4

[4] = system: common lambsquarters (CHEAL), barnyard grass (ECHCG), and wild oat (AVEFA); test: Agricultural field testing, overall performance over the weed species; assay type: in vivo; details: all weed species, glyphosate 480 g.a.e./ha
Description: as §1
as §2, with “after treatment. […]” for “after treatment.”

[5] = system: Daphnia magna; test: Aquatic toxicity screen, Daphnia sp. Acute Immobilization Test (OECD 202 / OPPTS 850.1010); details: for 48-Hour EC50: 48-hour exposure, static test conditions
Description: The study is performed based on procedures in the OECD Guidelines for Testing of Chemicals, Guideline 202: Daphnia sp., Acute Immobilization Test, and U.S. EPA Guidelines, OPPTS Number 850.1010: Aquatic Invertebrate Acute Toxicity Test. The half maximal effective concentration (EC50) after 48 hours is reported below.

Substance | CHEAL control relative to the control [1] | CHEAL control relative to Roundup Powermax [1] | CHEAL 14 DAT, % [1] [%] | CHEAL 22 DAT, % [1] [%] | CHEAL 8 DAT, % [1] [%] | ECHCG control relative to Roundup Powermax [2] | ECHCG 8 DAT, % [2] [%] | ECHCG 14 DAT, % [2] [%] | ECHCG 22 DAT, % [2] [%] | AVEFA 9 DAT, % [3] [%] | AVEFA 23 DAT, % [3] [%] | overall field performance as glyphosate adjuvant [4] | overall field performance as glyphosate adjuvant ([4]; listed as C11 unsaturated 2EO ethoxylate) | 48-Hour EC50 [5] [mg/L] | aquatic toxicity rating ([5]; in vivo)
C11 saturated fatty amine 2EO ethoxylate [Comparative Agent D, reference compound] | outperform the control | same performance as Roundup Powermax | 91.3 | 92.5 | 75.0 | outperform Roundup Powermax | 97.5 | 91.3 | 100 | 82.5 | 100 |  |  |  | 
C11 unsaturated fatty amine 2EO ethoxylate [Agent B] | outperform the control | same performance as Roundup Powermax | 97.7 | 96.7 | 86.7 | outperform Roundup Powermax; also recorded: top performer | 100 | 97.7 | 100 | 87.5 | 100 | best overall performance of the group | outperforms its saturated analog |  | 
saturated C11 fatty amine 5EO ethoxylate [Saturated C11 amine 5EO ethoxylate] |  |  |  |  |  |  |  |  |  |  |  |  |  | 3.3 | moderately toxic
unsaturated C11 fatty amine 5EO ethoxylate [Unsaturated C11 amine 5 EO ethoxylate] |  |  |  |  |  |  |  |  |  |  |  |  |  | 20 | 
